{"source": "patent US20250263370A1", "about": "(Tay Therapeutics Limited, priority 2022, published 2025)", "key": {"[1]": {"system": "rat anti-collagen IgG1 antibodies", "test": "Rat anti-collagen IgG1 antibodies in serum of CIA rats at day 21", "format": "in vivo, Lewis rat", "experimental": "Blood was additionally collected from groups 1-7 via cardiac puncture following euthanasia on Day 21. […] Serum was divided into two separate tubes and stored at −75±15° C. One tube was used to analyze IgG1, and the other tube was reserved for additional analyses."}, "[2]": {"system": "collagen-induced arthritis", "conditions": "rat, in vivo, po"}}, "note": "Values joined by “and” are separate entries in the source; they are usually repeats but may differ in a detail not shown here. Equal entries are not always repeated. Marks after values point to notes of the source that are not given here.", "data": [{"smiles": "C[C@@H]1C[C@H]2[C@@H]3CCC4=CC(=O)C=C[C@]4(C)[C@@]3(F)[C@@H](O)C[C@]2(C)[C@@]1(O)C(=O)CO", "note": "[dexamethasone]", "values": [{"measurement": "Average rat anti-collagen IgG1 levels, Mean", "setting": "[1]; Group 3 (CIA + Dex), day 21, group mean", "value": "7833.69*"}, {"measurement": "Final Rat Anti-Collagen IgG1 Antibody Con.", "setting": "[1]; Group 3 (CIA + Dexamethasone), day 21, per animal", "value": "22019.88 units/ml and 5250.27 units/ml and 1296.14 units/ml and 2541.14 units/ml and 4553.59 units/ml and 7925.50 units/ml and 7346.16 units/ml"}, {"measurement": "Rat Anti-Collagen IgG1 Antibody Con.", "setting": "[1]; before multiplying by Fold 2000, Group 3 (CIA + Dexamethasone), day 21, per animal", "value": "11.01 units/ml and 2.63 units/ml and 0.65 units/ml and 1.27 units/ml and 5.87 units/ml and 2.28 units/ml and 3.96 units/ml and 3.67 units/ml"}, {"measurement": "body weight over the course of the study", "setting": "[2]", "value": "did not exhibit weight gains over the first 13 days of the study"}]}]}
